Measurements from article PMC6704710, “Preclinical evaluation of 3D185, a novel potent inhibitor of FGFR1/2/3 and CSF-1R, in FGFR-dependent and macrophage-dominant cancer models” (Journal of Experimental & Clinical Cancer Research : CR, 2019).

Experiments:
Experiment in all cases: Eurofins kinase panel
Type in all cases: biochemical
Conditions in all cases: read-out: Inhibition rate (%)
DDR2(h) = biological target: T1, DDR2(h) (Homo sapiens, UniProt Q16832)
T1 construct: purchased Eurofins (KinaseProfiler)
T1 sequence (Q16832 22-855): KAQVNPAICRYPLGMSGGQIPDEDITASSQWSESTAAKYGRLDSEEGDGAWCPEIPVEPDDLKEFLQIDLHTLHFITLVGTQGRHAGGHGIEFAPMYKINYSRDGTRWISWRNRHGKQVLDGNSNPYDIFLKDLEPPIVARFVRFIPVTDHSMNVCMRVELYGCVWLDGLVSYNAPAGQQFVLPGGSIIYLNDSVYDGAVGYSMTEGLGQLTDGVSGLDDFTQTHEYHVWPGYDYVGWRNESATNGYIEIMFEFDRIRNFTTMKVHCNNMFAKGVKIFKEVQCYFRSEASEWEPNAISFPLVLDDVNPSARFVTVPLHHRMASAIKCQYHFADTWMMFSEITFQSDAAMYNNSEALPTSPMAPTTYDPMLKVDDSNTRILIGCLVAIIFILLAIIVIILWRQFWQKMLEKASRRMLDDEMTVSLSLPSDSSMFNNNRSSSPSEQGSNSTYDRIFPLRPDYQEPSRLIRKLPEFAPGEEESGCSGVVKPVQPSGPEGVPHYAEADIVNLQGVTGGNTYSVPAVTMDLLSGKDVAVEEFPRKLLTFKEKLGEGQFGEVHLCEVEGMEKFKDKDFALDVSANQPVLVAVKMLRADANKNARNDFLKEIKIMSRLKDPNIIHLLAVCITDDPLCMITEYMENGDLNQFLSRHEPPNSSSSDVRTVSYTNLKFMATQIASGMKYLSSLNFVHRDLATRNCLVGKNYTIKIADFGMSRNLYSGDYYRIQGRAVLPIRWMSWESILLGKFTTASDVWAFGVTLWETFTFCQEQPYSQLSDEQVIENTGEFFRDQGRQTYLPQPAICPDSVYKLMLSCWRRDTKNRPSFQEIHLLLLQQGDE
Method: (§1) Active FGFR1–4, VEGFR1, KDR, VEGFR3, PDGFRα and PDGFRβ proteins were purchased from Eurofins (Fremont, United States), and kinase activity was assessed using ELISA, as previously reported. […]. Increasing concentrations of ATP were diluted for the kinase reaction in the ATP competition assay. CSF-1R kinase activity was analyzed using the Z’-LYTE™ Kinase Assay Kit (Thermo Fisher, United States). The assay formats are described in the SelectScreen Kinase Profiling Service Zlyte protocol. IC50 values were calculated by dose-response curve fitting using Prism (Graph Pad).

ZAP-70(h) = biological target: T2, ZAP-70(h) (Homo sapiens, UniProt P43403)
T2 construct: purchased Eurofins (KinaseProfiler)
T2 sequence (P43403 1-619): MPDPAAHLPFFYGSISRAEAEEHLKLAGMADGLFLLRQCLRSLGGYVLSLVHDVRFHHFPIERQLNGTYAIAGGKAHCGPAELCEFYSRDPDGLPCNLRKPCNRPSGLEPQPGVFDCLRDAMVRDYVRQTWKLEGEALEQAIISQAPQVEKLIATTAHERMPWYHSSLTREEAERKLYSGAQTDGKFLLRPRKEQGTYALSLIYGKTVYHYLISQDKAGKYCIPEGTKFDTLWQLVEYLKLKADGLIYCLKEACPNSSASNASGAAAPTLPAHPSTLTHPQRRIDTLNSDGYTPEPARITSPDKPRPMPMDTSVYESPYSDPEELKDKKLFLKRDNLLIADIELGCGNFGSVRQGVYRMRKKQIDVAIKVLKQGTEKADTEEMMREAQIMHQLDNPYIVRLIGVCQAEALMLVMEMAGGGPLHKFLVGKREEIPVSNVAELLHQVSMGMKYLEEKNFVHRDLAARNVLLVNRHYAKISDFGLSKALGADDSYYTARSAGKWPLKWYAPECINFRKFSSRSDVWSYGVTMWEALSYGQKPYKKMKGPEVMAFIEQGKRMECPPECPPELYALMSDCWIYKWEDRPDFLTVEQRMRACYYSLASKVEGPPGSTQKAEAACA
Method: as §1

ULK2(h) = biological target: T3, ULK2(h) (Homo sapiens, UniProt Q8IYT8)
T3 construct: purchased Eurofins (KinaseProfiler)
T3 sequence (Q8IYT8 1-1036): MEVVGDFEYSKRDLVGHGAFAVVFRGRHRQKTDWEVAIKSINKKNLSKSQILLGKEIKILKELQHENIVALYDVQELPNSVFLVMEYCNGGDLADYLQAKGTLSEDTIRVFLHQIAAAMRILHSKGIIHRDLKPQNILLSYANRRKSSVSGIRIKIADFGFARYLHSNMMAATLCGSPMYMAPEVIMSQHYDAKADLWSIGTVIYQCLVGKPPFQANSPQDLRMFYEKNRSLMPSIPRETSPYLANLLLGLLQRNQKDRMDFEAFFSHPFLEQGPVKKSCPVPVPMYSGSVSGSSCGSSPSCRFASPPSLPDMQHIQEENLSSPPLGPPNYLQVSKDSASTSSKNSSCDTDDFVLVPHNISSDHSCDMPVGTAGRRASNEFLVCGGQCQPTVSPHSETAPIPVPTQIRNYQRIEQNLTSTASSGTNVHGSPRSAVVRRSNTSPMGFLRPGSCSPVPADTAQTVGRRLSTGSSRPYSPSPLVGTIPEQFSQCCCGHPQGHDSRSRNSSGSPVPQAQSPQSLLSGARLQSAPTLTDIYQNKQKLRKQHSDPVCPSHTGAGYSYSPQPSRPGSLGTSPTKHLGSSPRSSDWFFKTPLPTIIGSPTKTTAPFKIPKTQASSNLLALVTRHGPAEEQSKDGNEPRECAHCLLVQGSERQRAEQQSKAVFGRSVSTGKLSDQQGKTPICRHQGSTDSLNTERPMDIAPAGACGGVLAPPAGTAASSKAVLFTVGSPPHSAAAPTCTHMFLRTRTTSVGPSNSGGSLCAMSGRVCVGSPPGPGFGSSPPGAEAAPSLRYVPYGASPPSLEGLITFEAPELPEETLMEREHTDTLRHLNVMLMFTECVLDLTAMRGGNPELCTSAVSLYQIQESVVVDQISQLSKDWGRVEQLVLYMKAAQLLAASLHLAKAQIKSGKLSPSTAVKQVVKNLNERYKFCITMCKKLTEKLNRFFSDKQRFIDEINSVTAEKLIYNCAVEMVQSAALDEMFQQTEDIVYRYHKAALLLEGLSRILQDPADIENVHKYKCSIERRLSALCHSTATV
Method: as §1

TrkC(h) = biological target: T4, TrkC(h) (Homo sapiens, UniProt Q16288)
T4 construct: purchased Eurofins (KinaseProfiler)
T4 sequence (Q16288 32-839): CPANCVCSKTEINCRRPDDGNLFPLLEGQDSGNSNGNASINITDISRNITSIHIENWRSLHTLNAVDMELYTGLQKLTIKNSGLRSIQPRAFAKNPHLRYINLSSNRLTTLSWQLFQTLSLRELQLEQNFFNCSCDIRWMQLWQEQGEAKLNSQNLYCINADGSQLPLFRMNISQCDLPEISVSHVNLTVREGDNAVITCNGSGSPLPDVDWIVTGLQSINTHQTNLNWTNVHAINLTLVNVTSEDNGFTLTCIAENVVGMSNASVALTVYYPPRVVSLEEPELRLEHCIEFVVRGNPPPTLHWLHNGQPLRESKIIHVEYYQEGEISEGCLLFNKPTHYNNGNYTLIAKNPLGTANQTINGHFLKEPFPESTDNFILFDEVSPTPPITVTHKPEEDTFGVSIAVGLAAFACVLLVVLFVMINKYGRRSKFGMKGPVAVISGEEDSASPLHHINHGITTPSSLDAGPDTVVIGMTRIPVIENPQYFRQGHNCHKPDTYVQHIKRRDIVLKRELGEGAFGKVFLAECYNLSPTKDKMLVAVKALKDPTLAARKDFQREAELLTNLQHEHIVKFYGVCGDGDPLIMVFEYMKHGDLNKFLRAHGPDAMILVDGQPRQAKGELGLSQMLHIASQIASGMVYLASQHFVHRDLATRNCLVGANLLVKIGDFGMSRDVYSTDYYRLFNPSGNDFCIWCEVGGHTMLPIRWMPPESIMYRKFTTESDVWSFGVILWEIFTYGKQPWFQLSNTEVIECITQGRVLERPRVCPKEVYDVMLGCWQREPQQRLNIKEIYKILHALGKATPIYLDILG
Method: as §1

Rsk2(h) = biological target: T5, Rsk2(h) (Homo sapiens, UniProt P51812)
T5 construct: purchased Eurofins (KinaseProfiler)
T5 sequence (P51812 whole entry): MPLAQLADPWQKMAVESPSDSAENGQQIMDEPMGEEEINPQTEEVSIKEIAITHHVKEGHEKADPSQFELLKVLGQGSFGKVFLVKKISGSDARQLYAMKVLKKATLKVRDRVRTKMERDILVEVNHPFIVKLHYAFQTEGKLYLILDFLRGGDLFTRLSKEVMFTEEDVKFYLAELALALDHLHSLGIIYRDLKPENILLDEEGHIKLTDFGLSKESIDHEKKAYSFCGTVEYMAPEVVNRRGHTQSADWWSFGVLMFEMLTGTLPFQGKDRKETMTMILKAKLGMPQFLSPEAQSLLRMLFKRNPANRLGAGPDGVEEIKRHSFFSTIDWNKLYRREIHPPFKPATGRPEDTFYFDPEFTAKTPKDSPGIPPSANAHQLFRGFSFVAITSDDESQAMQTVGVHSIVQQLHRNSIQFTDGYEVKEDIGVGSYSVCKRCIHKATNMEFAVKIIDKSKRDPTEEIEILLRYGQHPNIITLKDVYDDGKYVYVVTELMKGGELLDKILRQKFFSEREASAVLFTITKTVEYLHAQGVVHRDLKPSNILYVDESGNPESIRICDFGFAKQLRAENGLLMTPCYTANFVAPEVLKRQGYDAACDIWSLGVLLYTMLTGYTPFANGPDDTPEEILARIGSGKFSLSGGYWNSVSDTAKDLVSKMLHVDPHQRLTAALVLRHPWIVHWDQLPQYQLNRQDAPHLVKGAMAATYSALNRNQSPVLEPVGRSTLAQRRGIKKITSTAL
Method: as §1

Work on `COc1cc(OC)c(Cl)c(-c2ccc3c(NC(=O)c4ccc(N5CCNC(C)(C)C5)cc4)n[nH]c3n2)c1Cl` [3D185] yielded an inhibition at 0.01 µM (DDR2(h); 10 nM) of 0%, an inhibition at 0.1 µM (DDR2(h); 100 nM) of 7% and an inhibition at 1 µM (DDR2(h); 1000 nM) of 54%. It also gave an inhibition at 0.01 µM (ZAP-70(h); 10 nM) of 12%, an inhibition at 0.1 µM (ZAP-70(h); 100 nM) of 0% and an inhibition at 1 µM (ZAP-70(h); 1000 nM) of 8%. It also gave an inhibition at 0.01 µM (ULK2(h); 10 nM) of 4%, an inhibition at 0.1 µM (ULK2(h); 100 nM) of 14% and an inhibition at 1 µM (ULK2(h); 1000 nM) of 22%. It also gave an inhibition at 0.01 µM (TrkC(h); 10 nM) of 36%, an inhibition at 0.1 µM (TrkC(h); 100 nM) of 85% and an inhibition at 1 µM (TrkC(h); 1000 nM) of 98%. It also gave an inhibition at 0.01 µM (Rsk2(h); 10 nM) of -19%, an inhibition at 0.1 µM (Rsk2(h); 100 nM) of 0% and an inhibition at 1 µM (Rsk2(h); 1000 nM) of 24%.
